Data set [1] relates to rice {strain “Nipponbare”}. Put plainly: Administration of synthetic stomagen to rice seeds (Test Example 14). The format is in vivo. Particulars: 200 μL of 80 μM stomagen added to 5 mL water at seeding; abaxial epidermis of second leaf at 32 days after seeding; vs not administered. The procedure: The seeds of rice {strain “Nipponbare”} were seeded to a container {50-mL volume, manufactured by greiner} with 5 mL of desalted water, and thereafter 200 μL of 80 μM stomagen (the synthetic stomagen obtained in Example 5) was added thereto. Then, the seeds were maintained at 22° C. for 8 days. Thereafter, the resulting plant was grown at 22° C. in a B5 sterilized medium. The second leaves of rice at 32 days after seeding were collected. Then, the second leaves were fixed and made transparent, and then stomata were stained by carrying out the same operation as in Test Example 1. Thereafter, the abaxial epidermis of the second leaves was observed under a differential interference microscope {manufactured by Zeiss, trade name: Axioskop plus microscope}. The abaxial epidermis of the second leaves of the rice at 32 days after seeding was observed by carrying out the same procedure as in the above with the use of a rice to which stomagen was not administered as a control. A differential interference image of abaxial epidermis of the second leaf of the rice to which synthesized stomagen was administered in Test Example 14 is shown in FIG. 39 (a) and a differential interference image of abaxial epidermis of the second leaf of the rice to which synthesized stomagen was not administered in Test Example 14 is shown in FIG. 39 (b). In the figures, a framed part represents a stoma. […]

The subject of data set [2] is Arabidopsis thaliana {Lti6b-GFP line}. Put plainly: Administration of synthetic stomagen to germinated seedlings (Example 6). The format is in vivo. The procedure: The seeds of Arabidopsis thaliana {Lti6b-GFP line} were maintained in a B5 sterilized medium for germination. To the Lti6b-GFP line at 2 days after germination was administered the synthetic stomagen obtained in Example 5, so as to have a concentration of 300 nM. Thereafter, the Lti6b-GFP line was grown for 3 days at 22° C. Next, the cotyledon was collected. The surface was observed under a confocal microscope {manufactured by Zeiss, trade name: LSM510 META microscope}, to determine the number of stomata in a square area of 0.22 mm^2. Then, stomatal density was calculated. Here, statistical analysis was conducted by using R statistical analysis software. In addition, stomatal density was calculated by carrying out the same operation as described above with the use of an Lti6b-GFP line to which stomagen was not administered as a control. The result of examining the relationship between the amount of synthesized stomagen and stomatal density in Example 6 is shown in FIG. 27.

The test system is the same in data set [3]. Nature of the data set: Administration of purified recombinant stomagen to germinated seedlings (Example 4). The format is in vivo. As for the experimental part: Seeds of Arabidopsis thaliana {Lti6b-GFP line} were maintained in a B5 sterilized medium {manufactured by NIHON PHARMACEUTICAL CO., LTD, catalogue number: 399-00621} for germination. To the Lti6b-GFP line at 2 days after germination was administered the purified recombinant stomagen obtained in Example 2, so as to have a concentration of 2 μM. Thereafter, the Lti6b-GFP line was grown for 3 days at 22° C. The abaxial epidermis of the cotyledons was observed under a confocal microscope. The same operation was carried out as described above, using as a control an Lti6b-GFP line to which stomagen was not administered. The abaxial epidermis of the cotyledons was observed. A confocal microscopic image of abaxial epidermis of the cotyledon of the Lti6b-GFP-expressing line to which the purified recombinant stomagen was not administered in Example 4 is shown in FIG. 26 (a) and a confocal microscopic image of abaxial epidermis of the cotyledon of the Lti6b-GFP-expressing line to which the purified recombinant stomagen (2 μM) was administered in Example 4 is shown in FIG. 26 (b). In the figures, a scale bar represents 50 μm.

In a further data set the test system is soybean (Kariyutaka). Put plainly: Addition of synthetic stomagen to soybean shoot apex (Example 8). The format is in vivo. Particulars: 1 μM, 10 μM or 100 μM added to shoot apex at second leaf stage, grown for a week. As for the experimental part: The seeds of soybean (Kariyutaka) were seeded to a pot containing potting compost, germinated and then grown until the second leaf stage. Then, the synthetic stomagen obtained in Example 5 was added to the shoot apex, so as to have a concentration of 1 μM, 10 μM or 100 μM. Thereafter, the resulting plant was grown for a week and observed under a differential interference microscope {manufactured by Zeiss, trade name: Axioskop plus microscope}, to determine the number of stomata in a square area of 0.22 mm^2. Then, stomatal density was calculated. Here, statistical analysis was conducted using R statistical analysis software. […] In the figure, an open triangle, an open square and an open circle each show a different plant.

For the next data set, the system named is spch mutant. Put plainly: Administration of purified recombinant stomagen to spch mutant (Test Example 9). The format is in vivo, Arabidopsis thaliana. Particulars: 2 μM administered to spch mutant at 2 days after germination, grown 3 days; abaxial epidermis of cotyledon. As for the experimental part:
The seeds of the spch mutant or the seeds of Arabidopsis thaliana Col-0 line (stock number: CS60000) {wild-type strain} were maintained in a B5 sterilized medium for germination. To the spch mutant or the wild-type strain at 2 days after germination was administered the purified recombinant stomagen obtained in Example 2, so as to have a concentration of 2 μM. Thereafter, the spch mutant or the wild-type strain was grown at 22° C. for 3 days. The abaxial epidermis of the cotyledon was observed under a confocal microscope {manufactured by Zeiss, trade name: LSM510 META microscope}. The abaxial epidermis of the cotyledons was observed by carrying out the same operation was carried out as described above with the use of a spch mutant line to which stomagen was not administered as a control. A confocal microscopic image of abaxial epidermis of the cotyledon of the spch mutant to which purified recombinant stomagen was not administered in Test Example 9 is shown in FIG. 28 (a), a confocal microscopic image of abaxial epidermis of the cotyledon of the spch mutant to which purified recombinant stomagen (2 μM) was administered in Test Example 9 is shown in FIG. 28 (b), and a confocal microscopic image of abaxial epidermis of the cotyledon of the wild-type strain to which purified recombinant stomagen (2 μM) was administered in Test Example 9 is shown in FIG. 28 (c).

In data set [4] the test system is Arabidopsis thaliana Col-0 line. Nature of the data set: Heat and lyophilization treatment of stomagen, then stomatal density test (Test Example 16). The class given is in vivo. Particulars: 60° C. for 5 minutes, 90° C. for 5 minutes or lyophilized; administered at 3 μM, cotyledon. As for the experimental part:
The chemically synthesized stomagen obtained in Example 5 was incubated at 60° C. for 5 minutes (sample number 3) or at 90° C. for 5 minutes (sample number 4). In addition, the chemically synthesized stomagen obtained in Example 5 was lyophilized (sample number 5).
The seeds of Arabidopsis thaliana Col-0 line (stock number: CS60000) were maintained and germinated in a B5 sterilized medium. To the Arabidopsis thaliana Col-0 line (stock number: CS60000) at 2 days after germination was administered the untreated stomagen (sample number 2), the stomagen incubated at 60° C. for 5 minutes (sample number 3), the stomagen incubated at 90° C. for 5 minutes (sample number 4), or the lyophilized stomagen (sample number 5), so as to have a concentration of 3 μM.
Thereafter, the Arabidopsis thaliana Col-0 line (stock number: CS60000) was grown at 22° C. for 3 days. Next, the cotyledon was collected, and the surface of the cotyledon was observed under a confocal microscope {manufactured by Zeiss, trade name: LSM510 META microscope}, to determine the number of stomata in a square area of 0.22 mm^2. Then, stomatal density was calculated. […] Stomatal density was calculated by carrying out the same operation as described above with the use of Arabidopsis thaliana Col-0 line (stock number: CS60000) to which stomagen was not administered as a control (sample number 1). […]

[5] abbreviates: 2 μM at 2 days after germination, grown 3 days at 22° C., abaxial epidermis of cotyledon, vs not administered.

The text below walks through data of patent US9115367B2, “Stomata-increasing agent, polypeptide, method for increasing number and/or density of stomata in plant, and method for increasing yield of plant” (KYOTO UNIVERSITY, priority 2009, dated 2015).

Where no end group is shown, it is not given here.

Take “synthetic stomagen: chemically synthesized polypeptide (45 amino acids) comprising 58th to 102nd amino acid residues of SEQ ID NO: 1, refolded by dialysis (IGSTAPTCTYNECRGCRYKCRAEQVPVEGNDPINSAYHYRCVCHR; also: refolded by dialysis, disulfide pairing not given here; listed as Arabidopsis thaliana)”: in data set [1], the number of stomata result is recorded as “increase”. For the same substance, the stomatal density entry is reported as “increase” in data set [1] and “increases” in data set [2] (300 nM at 2 days after germination, grown 3 days at 22° C., abaxial epidermis of cotyledon, vs not administered). Also, the “stomatal density, concentration dependence” value in data set [2] (chemically synthesized stomagen) is recorded as “concentration-dependently increase”.

On to “purified recombinant stomagen: stomagen expressed in tobacco-cultured BY-2 cells and purified from culture supernatant by reversed-phase HPLC (IGSTAPTCTYNECRGCRYKCRAEQVPVEGNDPINSAYHYRCVCHR; Stomagen; UniProt Q9SV72 58-102, looked up)”, for which, in data set [3] (setting [5]), the number of stomata entry is “increased” and the stomatal density entry is on record as “increased”. Further, the “stomatal density, concentration dependence” value in data set [3] (recombinant stomagen expressed in BY-2 cells) is given as “concentration-dependently increase”.

For the substance “stomagen: polypeptide comprising the amino acid sequence shown in SEQ ID NO: 6; 45-amino-acid peptide having six cysteine residues (IGSTAPTCTYNECRGCRYKCRAEQVPVEGNDPINSAYHYRCVCHR; listed as Arabidopsis thaliana)”, the “relationship between stomagen concentration and stomatal density” value in the data set on soybean (Kariyutaka) is “positive correlation”. The stomata result in the data set on spch mutant is “do not increase”. In data set [4], the “stability to heat and drying (stomatal density after treatment)” value was “stable to heat and drying”.
